Here are results for 43 compounds from US20050075375A1 (priority 2003, published 2005).

Structures are written as SMILES. pEC50: −log10 of the molar value.

By pEC50 is commonly meant −log10 of the EC50, conventionally taken in molar units.

In the first test the test system is monocistronic NK5.1 HCV replicon in Huh7 cells. The experiment in a line: HCV replicon assay, monocistronic replicon cell line. It counts as cell-based, hepatitis C virus. The conditions noted are these: Hepatitis C virus, Huh-7, 72 h; Table 1; monocistronic replicon in Huh7 cells, 3 days incubation, HCV RNA/GAPDH RNA by TaqMan RT-PCR; read-out: Mono EC50 Median. Put shortly: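 Huh7 cells carrying the monocistronic NK5.1 replicon, seeded 24 h before dosing, were exposed to six-point half-log compound series (0.6% DMSO) for 3 days at 37 °C. Replicon RNA was quantified by TaqMan RT-PCR, normalised to GAPDH and compared with DMSO controls to derive EC50.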
With `COc1ccc(-n2nc(-c3c(O)ccc4ccccc34)cc2C)cc1` [Compound 8], the pEC50 was under 4.72.

Consider `COc1ccc(O)c(-c2cc(-c3ncccc3C)on2)c1` [Compound 132, 4-Methoxy-2-[5-(3-methyl-pyridin-2-yl)-isoxazol-3-yl]-phenol], for which the pEC50 is 5.70.

Regarding `O=[N+]([O-])c1cccnc1-c1noc(-c2c(O)ccc3ccccc23)n1` [Compound 137, 1-[3-(3-Nitro-pyridin-2-yl)-[1,2,4]oxadiazol-5-yl]-naphthalen-2-ol], the pEC50 was 5.74.

In the case of `COc1cccc(-c2nc(-c3ccccn3)no2)c1O` [Compound 151, 2-Methoxy-6-(3-pyridin-2-yl-[1,2,4]oxadiazol-5-yl)-phenol], the pEC50 was 4.74.

For the compound `COc1ccc2oc(=O)c3c(C)n(-c4ccccn4)nc3c2c1` [Compound 95], the negative-log EC50 (pEC50) was 5.24.

Regarding `COc1cc(Br)cc(-c2nc(-c3ncccc3C)no2)c1O` [Compound 242, 4-Bromo-2-methoxy-6-[3-(3-methyl-pyridin-2-yl)-[1,2,4]oxadiazol-5-yl]-phenol], the pEC50 was 5.08.

With `Cc1cc(O)c(-c2cc(C)n(-c3ccc(Cl)cc3)n2)cc1C` [Compound 22, 2-[1-(4-Chloro-phenyl)-5-methyl-1H-pyrazol-3-yl]-4,5-dimethyl-phenol], the pEC50 was under 4.72.

In the case of `COc1ccc(O)c(-c2ccn(-c3ncccc3C)n2)c1` [Compound 93, 4-Methoxy-2-[l-(3-methyl-pyridin-2-yl)-1H-pyrazol-3-yl]-phenol], the pEC50 was 5.04.

For the compound `Oc1ccc(F)cc1-c1nc(-c2ccccn2)no1` [Compound 164, 4-Fluoro-2-(3-pyridin-2-yl-[1,2,4]oxadiazol-5-yl)-phenol], the pEC50 was 5.05.

Turning to `COc1cc(O)c(-c2ccn(-c3ncccc3C)n2)cc1OC` [Compound 122, 4,5-Dimethoxy-2-[l-(3-methyl-pyridin-2-yl)-1H-pyrazol-3-yl]-phenol], the pEC50 was 4.89.

Take `Cc1cc(-c2ccc3ccccc3c2O)nn1-c1ccccc1C(F)(F)F` [Compound 16, 2-[5-Methyl-1-(2-trifluoromethyl-phenyl)-1H-pyrazol-3-yl]-naphthalen-1-ol]: the pEC50 was 4.77.

For `O=[N+]([O-])c1cccnc1-c1noc(-c2cc(Cl)ccc2O)n1` [Compound 154, 4-Chloro-2-[3-(3-nitro-pyridin-2-yl)-[1,2,4]oxadiazol-5-yl]-phenol], the pEC50 was under 4.72.

`Oc1ccc(Cl)cc1-c1nc(-c2ccc(C(F)(F)F)cn2)no1` [Compound 218, 4-Chloro-2-[3-(5-trifluoromethyl-pyridin-2-yl)-[1,2,4]oxadiazol-5-yl]-phenol]: the pEC50 was 4.74.

`CCCNC(=O)c1cc(-c2ccc(OC)cc2)nn1-c1ncccc1[N+](=O)[O-]` [Compound 70, 5-(4-Methoxy-phenyl)-2-(3-nitro-pyridin-2-yl)-2H-pyrazole-3-carboxylic acid propylamide]: the pEC50 was under 4.49.

`COc1ccc(O)c(-c2cc(-c3ncccc3C(F)(F)F)on2)c1` [Compound 129, 4-Methoxy-2-[5-(3-trifluoromethyl-pyridin-2-yl)-isoxazol-3-yl]-phenol]: the pEC50 was 5.42.

Take `COc1ccc(-c2ccnn2-c2ncccc2[N+](=O)[O-])c(F)c1` [Compound 46, 2-[5-(2-Fluoro-4-methoxy-phenyl)-pyrazol-1-yl]-3-nitro-pyridine]: the pEC50 was 5.22.

Still in this test, the particulars now being: Hepatitis C virus, Huh-7, 72 h; table T3 (compounds 471-640); monocistronic replicon in Huh7 cells, 3 days incubation, HCV RNA/GAPDH RNA by TaqMan RT-PCR; read-out: Mono EC50 Median.
For `COc1ccc(Br)cc1-c1nc(-c2ncccc2C(F)(F)F)n[nH]1` [Compound 553, 2-[5-(5-Bromo-2-methoxy-phenyl)-1H-[1,2,4]triazol-3-yl]-3-trifluoromethyl-pyridine], the pEC50 is under 4.72.

On to `FC(F)(F)c1ccncc1-c1n[nH]c(-c2ccccc2Cl)n1` [Compound 476, 3-[5-(2-Chloro-phenyl)-1H-[1,2,4]triazol-3-yl]-4-trifluoromethyl-pyridine], for which the pEC50 is under 4.49.

For `CC(C)(C)c1ccc(O)c(-c2nc(-c3cnccn3)n[nH]2)c1` [Compound 575, 4-tert-Butyl-2-(5-pyrazin-2-yl-2H-[1,2,4]triazol-3-yl)-phenol], the pEC50 was 5.05.

As to `FC(F)(F)c1ccc(-c2n[nH]c(-c3cccc4ccccc34)n2)nc1` [Compound 506, 2-(5-Naphthalen-1-yl-1H-[1,2,4]triazol-3-yl)-5-trifluoromethyl-pyridine], the pEC50 is under 4.72.

Take `COc1ccc(O)c(-c2ncn(-c3ncccc3C)n2)c1` [Compound 637, 4-Methoxy-2-[1-(3-methyl-pyridin-2-yl)-1H-[1,2,4]triazol-3-yl]-phenol]: the pEC50 was 4.92.

Turning to `Cc1ccc(O)c(-c2nc(-c3cnccn3)n[nH]2)c1` [Compound 583, 4-Methyl-2-(5-pyrazin-2-yl-2H-[1,2,4]triazol-3-yl)-phenol], the negative-log EC50 (pEC50) is under 4.49.

Turning to `CCOc1cccc(-c2nc(-c3cnccn3)n[nH]2)c1O` [Compound 580, 6-Ethoxy-2-(5-pyrazin-2-yl-2H-[1,2,4]triazol-3-yl)-phenol], the pEC50 was under 4.49.

For the compound `COc1ccc(O)c(-c2nc(-c3ccc(N)cn3)n[nH]2)c1` [Compound 594, 2-[5-(5-Amino-pyridin-2-yl)-2H-[1,2,4]triazol-3-yl]-4-methoxy-phenol], the pEC50 is under 4.72.

For the compound `COc1ccc(Br)cc1-c1nc(-c2ccc(C(F)(F)F)cn2)n[nH]1` [Compound 529, 2-[5-(5-Bromo-2-methoxy-phenyl)-1H-[1,2,4]triazol-3-yl]-5-trifluoromethyl-pyridine], the pEC50 was under 4.72.

As to `COc1ccc(F)c(-c2nc(-c3ncccc3Br)n[nH]2)c1` [Compound 501, 3-Bromo-2-[5-(2-Fluoro-5-methoxy-phenyl)-1H-[1,2,4]triazol-3-yl]-pyridine], the pEC50 is under 4.49.

On to `CC(C)(C)c1ccc(O)c(-c2nc(-c3ncccc3Br)n[nH]2)c1` [Compound 484, 2-[5-(3-Bromo-pyridin-2-yl)-2H-[1,2,4]triazol-3-yl]-4-tert-butyl-phenol], for which the pEC50 was 5.14.

For the compound `COc1ccc(O)c(-c2ncn(-c3ncccc3C(F)(F)F)n2)c1` [Compound 638, 4-Methoxy-2-[1-(3-trifluoromethyl-pyridin-2-yl)-1H-[1,2,4]triazol-3-yl]-phenol], the pEC50 was 4.96.

`COc1ccc(O)c(-c2nc(-c3ccccn3)nn2C)c1` [Compound 598, 4-Methoxy-2-(2-methyl-5-pyridin-2-yl-2H-[1,2,4]triazol-3-yl)-phenol]: the pEC50 was under 4.49.

Turning to `FC(F)(F)c1cccnc1-c1n[nH]c(-c2cccc(Br)c2)n1` [Compound 550, 2-[5-(3-Bromo-phenyl)-1H-[1,2,4]triazol-3-yl]-3-trifluoromethyl-pyridine], the pEC50 was under 4.72.

With `Cn1nc(-c2ccccn2)nc1-c1cc(Br)ccc1O` [Compound 596, 4-Bromo-2-(2-methyl-5-pyridin-2-yl-2H-[1,2,4]triazol-3-yl)-phenol], the pEC50 is 4.82.

For `Oc1c(Cl)cc(Cl)cc1-c1nc(-c2ccccn2)n[nH]1` [Compound 619, 4,6-Dichloro-2-(5-pyridin-2-yl-2H-[1,2,4]triazol-3-yl)-phenol], the pEC50 was 6.52.

With `COc1cccc(-c2nc(-c3ccc(C(F)(F)F)cn3)n[nH]2)c1` [Compound 523, 2-[5-(3-Methoxy-phenyl)-1H-[1,2,4]triazol-3-yl]-5-trifluoromethyl-pyridine], the negative-log EC50 (pEC50) is under 4.72.

Staying with this test, now noted: Hepatitis C virus, Huh-7; monocistronic NK5.1 HCV replicon in Huh7 cells; median value; read-out: Mono EC50 Median.
Regarding `Cc1cccnc1-c1noc(-c2cc(Cl)cc(Br)c2O)n1` [Compound 279, 2-Bromo-4-chloro-6-[3-(3-methyl-pyridin-2-yl)-[1,2,4]oxadiazol-5-yl]-phenol], the negative logarithm of the EC50 (pEC50) is 5.48.

As for `COc1ccc(-c2nc(-c3nccc4ccccc34)n[nH]2)c(O)c1` [Compound 376, 5-Methoxy-2-(5-isoquinolin-1-yl-2H-[1,2,4]triazol-3-yl)-phenol], the pEC50 was under 4.72.

In the case of `Cc1cccnc1-c1noc(-c2cccc(C(C)C)c2O)n1` [Compound 300, 2-Isopropyl-6-[3-(3-methyl-pyridin-2-yl)-[1,2,4]oxadiazol-5-yl]-phenol], the pEC50 is 5.82.

For the compound `COc1cc(Br)cc(-c2nc(-c3ncccc3C)no2)c1O` [Compound 242, 4-Bromo-2-methoxy-6-[3-(3-methyl-pyridin-2-yl)-[1,2,4]oxadiazol-5-yl]-phenol], the negative logarithm of the EC50 (pEC50) was 5.08.

For the compound `COc1ccc(O)c(-c2noc(-c3ccoc3)n2)c1` [Compound 299, 2-(5-Furan-3-yl-[1,2,4]oxadiazol-3-yl)-4-methoxy-phenol], the negative-log EC50 (pEC50) was 4.66.

Turning to `Oc1ccc(Cl)cc1-c1nc(-c2ccc(C(F)(F)F)cn2)no1` [Compound 218, 4-Chloro-2-[3-(5-trifluoromethyl-pyridin-2-yl)-[1,2,4]oxadiazol-5-yl]-phenol], the pEC50 was 4.74.

For `Cc1cccnc1-c1noc(-c2cc(OCCc3ccccc3)ccc2O)n1` [Compound 273, 2-[3-(3-Methyl-pyridin-2-yl)-[1,2,4]oxadiazol-5-yl]-4-phenethyloxy-phenol], the pEC50 was under 4.72.

For the compound `COc1ccc(-c2nc(-c3ccoc3)no2)c(O)c1` [Compound 286, 2-(3-Furan-3-yl-[1,2,4]oxadiazol-5-yl)-5-methoxy-phenol], the pEC50 was 5.01.

Take `Cc1cccnc1-c1noc(-c2ccc(N)cc2O)n1` [Compound 277, 5-Amino-2-[3-(3-methyl-pyridin-2-yl)-[1,2,4]oxadiazol-5-yl]-phenol]: the pEC50 was 5.22.

With `FC(F)(F)c1ccncc1-c1n[nH]c(-c2cccc3ccccc23)n1` [Compound 410, 3-(5-Naphthalen-1-yl-1H-[1,2,4]triazol-3-yl)-4-trifluoromethyl-pyridine], the pEC50 was 5.54.

With `Cc1cccnc1-c1n[nH]c(-c2cc(Br)ccc2O)n1` [Compound 449, 4-Bromo-2-(5-(3-methyl-pyridin-2-yl)-2H-[1,2,4]triazol-3-yl)-phenol], the negative logarithm of the EC50 (pEC50) was 5.64.

For `COc1ccc(-c2nc(-c3ncccc3C)no2)c(O)c1OC` [Compound 282, 2,3-Dimethoxy-6-[3-(3-methyl-pyridin-2-yl)-[1,2,4]oxadiazol-5-yl]-phenol], the pEC50 was 5.89.
